Read-outs that look alike come from different tables or passages of the source.
Legend:
[1] = Evaluation of organ selectivity (non-binding drug concentration in liver and pancreas after oral administration); assay type: in vivo, normal mice (C57BL/6j mice); details: mice, 150 minutes after administration; for concentration at 150 min: C57BL/6j, mouse, dose 30 mg/kg
Experimental: A test compound suspended in 10% (v/v) Gelucire 44/14 (GATTEFOSSE) was orally administered to normal mice (C57BL/6j mice, CLEA Japan, Inc.). The percentages of drugs that had not bound to proteins in the liver and the pancreas, which had been obtained by the in vitro test, were […] the total concentrations of the drugs in the liver and the pancreas obtained 150 minutes after administration of the drugs, so as to calculate the non-binding concentration of the drug in each case. The ratio of the non-binding concentration of the drug in the […] was calculated, and thus, liver selectivity was evaluated. As a comparative compound, PSN-GK1 described in non-patent document 11 (corresponding to Example 94 of patent document 2) was produced according to the method described in patent document 2, and the produced comparative compound was then evaluated in the same manner as described above (in the table, the comparative compound is indicated as PSN-GK1).

[2] = as above; assay type: in vivo, normal mice (C57BL/6j mice); details: mice, 150 minutes after administration
normal mice = details: low dose; non-patent document 11; cited from earlier work
[3] = target: T1, GST-GK derived from human liver GK (Homo sapiens, UniProt P35557); assay: In vitro GK activating action measurement test; assay type: biochemical; details: 10 min; test compound 1 μmol/L, glucose 2.5 mmol/L, 25° C.; read-out: GK activation rate (%)
T1 construct: made in house; host or cells: Escherichia coli DH5α
T1 sequence (P35557 1-466 isoform P35557-2): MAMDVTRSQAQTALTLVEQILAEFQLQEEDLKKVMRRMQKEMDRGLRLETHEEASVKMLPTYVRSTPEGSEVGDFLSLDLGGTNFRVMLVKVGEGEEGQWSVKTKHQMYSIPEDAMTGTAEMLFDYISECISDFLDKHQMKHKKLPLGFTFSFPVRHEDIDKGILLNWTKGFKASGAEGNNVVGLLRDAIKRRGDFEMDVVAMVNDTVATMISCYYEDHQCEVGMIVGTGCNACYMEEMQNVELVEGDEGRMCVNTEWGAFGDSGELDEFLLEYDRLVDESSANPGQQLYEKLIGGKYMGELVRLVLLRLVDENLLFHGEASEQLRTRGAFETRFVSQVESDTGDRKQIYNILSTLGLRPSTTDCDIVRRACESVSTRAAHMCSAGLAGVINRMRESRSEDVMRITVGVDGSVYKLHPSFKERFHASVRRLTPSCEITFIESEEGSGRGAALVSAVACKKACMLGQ
Description: cDNA (GenBank Accession No. NM_033507, human glucokinase, variant 2) encoding human liver-type GK polypeptide was cloned by performing a polymerase chain reaction (hereinafter referred to as “PCR”) using a human liver cDNA library (Human liver QUICK-Clone cDNA, TAKARA BIO INC.), and the thus cloned cDNA was then introduced into an expression vector (pGEX-3X, GE Healthcare Japan) for glutathione S transferase (hereinafter referred to as GST) fusion proteins. The resulting vector was introduced into Escherichia coli (Competent high DH5α, Toyobo Co., Ltd.), and the transformed Escherichia coli was then cultured at 37° C. Thereafter, Isopropyl β-D-1-thiogalactopyranoside (final concentration: 1 mmol/L, Sigma Aldrich Japan) was added to the culture, and the obtained mixture was then cultured at 30° C. for 3 hours. Thereafter, a cell mass was recovered. The recovered cell mass was subjected to freezing-and-thawing, and the resulting cell mass was then suspended in Triton-X that had been added in a final concentration of 1% to a phosphate buffer, followed by disintegration with an ultrasonic disintegrator. The homogenate was centrifuged at 33,200 rpm at 4° C. for 1 hour. Thereafter, the supernatant was recovered, and a GST-GK fusion protein was then purified using a glutathione column (GSTrap FF, GE Healthcare Japan). The obtained GST-GK fusion protein was divided into some portions each having a small volume, and the thus divided proteins were then preserved at −80° C.
A GK assay was carried out at 25° C. at a final incubation volume of 100 μL using a flat-bottom 96-well assay plate. An assay buffer comprised 25 mmol/L Hepes buffer (pH 7.1), 25 mmol/L KCl, 2.5 mmol/L or 10 mmol/L D-glucose, 5 mmol/L ATP, 1 mmol/L nicotinamide adenine dinucleotide phosphate (abbreviated as NADP), 2 mmol/L MgCl2, 1 mmol/L dithiothreitol (DTT), 2 units/mL glucose-6 phosphate dehydrogenase (G6PDH), and 1 μg/mL GST-GK derived from human liver GK. ATP, G6PDH, and NADP were purchased from Roche Diagnostics. […] The thus mixed solution was preincubated in an incubator in which the temperature was controlled at 25° C. for 15 minutes. Subsequently, the reaction was initiated by adding 10 μL of the GST-GK solution to the reaction mixture, resulting in a final concentration of 0.1 μg/mL. After initiation of the reaction, an increase in the optical concentration at 340 nm (OD340) was monitored with a microplate spectrophotometer (Varsamax, Molecular Devices Japan K. K.) every 10 seconds over an incubation period of 10 minutes. An inclination of the OD340 increase was defined as raw data. The GK activating rate was indicated as a numerical value obtained from the expression: (Inclination of OD340 increase by addition of the test compound)/(inclination of OD340 increase without addition of the test compound). The results of the GK activating rate obtained at a test compound concentration of 1 μmol/L under the condition of a glucose concentration of 2.5 mmol/L are shown in the following table 2.

[4] = system: normal mice (C57BL/6j mice); assay: Oral glucose tolerance test with normal mice after single administration of test compound; assay type: in vivo; details: 30 mg/kg oral, 2 g/kg glucose oral 30 minutes later, FIG. 1
Experimental: The test compound (Example 5) (30 mg/kg) suspended in 10%(v/v) Gelucire44/14 (GATTEFOSSE) was orally administered to normal mice (C57BL/6j mice, CLEA Japan, Inc.). Thirty minutes later, 2 g/kg glucose was orally administered to the mice. The blood glucose level was measured using an automatic blood glucose level measurement apparatus (Medisafe, TERUMO), before administration of the test compound, 25 minutes after administration of the test compound, and 15, 30, 60, and 120 minutes after administration of glucose. Thus, the action of the test compound to lower blood glucose level was evaluated.

[5] = system: normal mice (C57BL/6j mice); assay: Transition in blood glucose levels after single administration of test compound to normal mice; assay type: in vivo; details: 30 mg/kg oral, 1, 2, 4 and 6 hours after administration, FIG. 2
Experimental: A test compound (30 mg/kg, Example 5) suspended in 10% (v/v) Gelucire 44/14 (GATTEFOSSE) was orally administered to normal mice (C57BL/6j mice, CLEA Japan, Inc.). The blood glucose level was measured using an automatic blood glucose level measurement apparatus (Medisafe, TERUMO), before administration of the test compound, and 1, 2, 4, and 6 hours after administration of the test compound. Thus, the hypoglycemic action of the test compound was evaluated.

Row | Non-binding concentration (ng/mL) Liver ([1]; dose 1 mg/kg) [ng/mL] | Non-binding concentration (ng/mL) Pancreas ([1]; dose 1 mg/kg) [ng/mL] | Non-binding concentration (ng/mL) Liver ([1]; dose 3 mg/kg) [ng/mL] | Non-binding concentration (ng/mL) Pancreas ([1]; dose 3 mg/kg) [ng/mL] | Selectivity Liver/pancreas ([1]; dose 3 mg/kg) | Non-binding concentration (ng/mL) Liver ([1]; dose 10 mg/kg) [ng/mL] | Non-binding concentration (ng/mL) Pancreas ([1]; dose 10 mg/kg) [ng/mL] | Selectivity Liver/pancreas ([2]; dose 1 mg/kg) | Selectivity Liver/pancreas ([2]; dose 10 mg/kg) | activity at 1 µM [3] [%] | concentration at 150 min ([1]; liver, read-out: Non-binding concentration (ng/mL) Liver) [ng/mL] | concentration at 150 min ([1]; pancreas, read-out: Non-binding concentration (ng/mL) Pancreas) [ng/mL] | SMILES | hypoglycemic action on normal mice (normal mice) | blood glucose level in oral glucose tolerance test versus solvent alone [4] | blood glucose level after single administration versus solvent alone [5] | selectivity ratio at 150 min ([2]; C57BL/6j, mouse, liver and pancreas, dose 30 mg/kg)
1 | 0.56 | 0.58 | 1.4 | 1.7 | 0.8 | 7.4 | 6.0 | 1.0 | 1.2 | – | – | – | O=C(Nc1ncc(F)s1)[C@H](CC1CCOCC1)c1ccc(S(=O)(=O)C2CC2)cc1 [PSN-GK1, reference compound] | has a hypoglycemic action on normal mice | – | – | –
2 | – | – | – | – | – | – | – | – | – | 561 | 47 | 1.8 | CCNC(=O)N1CC[C@H](C[C@@H](C(=O)Nc2ncc(F)s2)c2ccc(S(=O)(=O)C3CC3)cc2)C1 [Example 5, (S)-3-((R)-2-(4-(cyclopropylsulfonyl)phenyl)-3-((5-fluorothiazol-2-yl)amino)-3-oxopropyl)-N-ethylpyrrolidine-1-carboxamide] | – | lower than that of the mice orally administered with the solvent alone | almost equal to the blood glucose level of the mice orally administered with the solvent alone | 27
